Laboratory results reported in ChEMBL document CHEMBL5715954, “Silencing c-Myc translation as a therapeutic strategy through targeting PI3Kδ and CK1ε in hematological malignancies” (Blood, 2017).

Tests used:
Design in all cases: scale not given: the % may be the effect or the level left
[1] = biological target: Macrophage-stimulating protein receptor (Homo sapiens) (UniProt Q04912); experiment: Inhibition of human RON assessed as enzyme activity at 1 uM using KKSRGDYMTMQIG as substrate preincubated for 20 mins followed by [gamma-33P]-ATP addition and measured after 120 mins by radiometric Hot-SpotSM Kinase assay relative to control
Sequence of Macrophage-stimulating protein receptor (Homo sapiens) (Q04912 25-304 limits assumed): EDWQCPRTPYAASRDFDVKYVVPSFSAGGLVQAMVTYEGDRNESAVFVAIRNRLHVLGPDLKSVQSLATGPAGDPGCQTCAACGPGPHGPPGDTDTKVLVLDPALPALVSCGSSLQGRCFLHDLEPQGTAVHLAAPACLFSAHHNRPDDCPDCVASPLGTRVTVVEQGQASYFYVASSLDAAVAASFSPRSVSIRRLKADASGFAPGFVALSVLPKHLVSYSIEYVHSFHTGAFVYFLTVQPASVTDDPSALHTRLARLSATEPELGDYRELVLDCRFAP
Sequence of Macrophage-stimulating protein receptor (Homo sapiens) (Q04912 310-1400 limits assumed): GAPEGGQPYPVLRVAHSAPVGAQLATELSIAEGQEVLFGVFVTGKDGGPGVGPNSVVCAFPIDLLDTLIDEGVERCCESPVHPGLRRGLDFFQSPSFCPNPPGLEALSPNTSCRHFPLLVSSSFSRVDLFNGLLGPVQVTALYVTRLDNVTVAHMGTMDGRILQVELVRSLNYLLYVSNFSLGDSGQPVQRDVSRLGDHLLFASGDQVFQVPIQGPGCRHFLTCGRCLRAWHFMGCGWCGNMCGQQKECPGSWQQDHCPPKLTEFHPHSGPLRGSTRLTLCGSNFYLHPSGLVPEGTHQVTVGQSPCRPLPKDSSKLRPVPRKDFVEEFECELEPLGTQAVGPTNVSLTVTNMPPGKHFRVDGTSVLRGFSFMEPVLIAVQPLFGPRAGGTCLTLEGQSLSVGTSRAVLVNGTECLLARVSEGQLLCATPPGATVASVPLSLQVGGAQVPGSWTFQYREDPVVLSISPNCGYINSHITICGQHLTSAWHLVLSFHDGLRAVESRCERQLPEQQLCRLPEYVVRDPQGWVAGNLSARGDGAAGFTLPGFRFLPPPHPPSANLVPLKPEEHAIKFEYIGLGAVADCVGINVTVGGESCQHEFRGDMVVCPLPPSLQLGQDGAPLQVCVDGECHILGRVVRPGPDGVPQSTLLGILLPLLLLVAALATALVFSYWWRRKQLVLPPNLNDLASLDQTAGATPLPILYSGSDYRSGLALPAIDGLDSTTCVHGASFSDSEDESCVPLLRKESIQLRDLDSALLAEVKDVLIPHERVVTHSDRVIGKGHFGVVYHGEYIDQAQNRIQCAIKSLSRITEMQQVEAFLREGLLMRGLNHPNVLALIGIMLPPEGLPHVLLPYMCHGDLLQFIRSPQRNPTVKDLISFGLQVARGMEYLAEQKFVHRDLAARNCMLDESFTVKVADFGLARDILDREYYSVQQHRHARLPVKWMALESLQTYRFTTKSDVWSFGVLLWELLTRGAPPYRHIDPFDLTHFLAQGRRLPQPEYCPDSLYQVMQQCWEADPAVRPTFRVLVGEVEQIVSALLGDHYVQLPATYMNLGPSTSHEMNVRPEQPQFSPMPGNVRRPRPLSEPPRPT

[2] = biological target: Casein kinase I isoform alpha (Homo sapiens) (UniProt P48729); experiment: Inhibition of human CK1a1 assessed as enzyme activity at 1 uM using KRRRAL[pS]VASLPGL as substrate preincubated for 20 mins followed by [gamma-33P]-ATP addition and measured after 120 mins by radiometric Hot-SpotSM Kinase assay relative to control
Sequence of Casein kinase I isoform alpha (Homo sapiens) (P48729 2-337 limits assumed): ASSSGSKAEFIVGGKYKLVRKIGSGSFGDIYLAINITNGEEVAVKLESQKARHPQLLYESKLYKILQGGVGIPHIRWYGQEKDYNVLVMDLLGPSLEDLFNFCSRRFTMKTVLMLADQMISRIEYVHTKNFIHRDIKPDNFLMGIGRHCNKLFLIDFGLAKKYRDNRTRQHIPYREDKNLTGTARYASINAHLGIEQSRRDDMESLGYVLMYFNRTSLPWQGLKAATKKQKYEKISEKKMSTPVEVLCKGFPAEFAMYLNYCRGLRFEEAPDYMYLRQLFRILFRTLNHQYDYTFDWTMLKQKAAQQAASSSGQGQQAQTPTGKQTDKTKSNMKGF

[3] = biological target: T1, Myosin light chain kinase family member 4 (Homo sapiens) (UniProt Q86YV6); experiment: Inhibition of human MYLK4 assessed as enzyme activity at 1 uM using KKRPQRRYSNVF as substrate preincubated for 20 mins followed by [gamma-33P]-ATP addition and measured after 120 mins by radiometric Hot-SpotSM Kinase assay relative to control
T1 sequence (whole entry): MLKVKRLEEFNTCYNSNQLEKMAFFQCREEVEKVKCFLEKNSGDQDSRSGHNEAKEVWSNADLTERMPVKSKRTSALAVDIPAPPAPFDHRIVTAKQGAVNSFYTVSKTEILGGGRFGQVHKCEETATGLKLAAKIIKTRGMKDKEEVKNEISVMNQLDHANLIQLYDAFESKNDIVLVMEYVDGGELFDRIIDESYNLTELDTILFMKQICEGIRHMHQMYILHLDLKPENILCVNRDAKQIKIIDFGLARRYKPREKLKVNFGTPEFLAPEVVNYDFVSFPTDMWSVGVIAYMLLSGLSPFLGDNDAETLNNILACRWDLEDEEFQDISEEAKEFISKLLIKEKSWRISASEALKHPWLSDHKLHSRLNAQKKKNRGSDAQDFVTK

[4] = biological target: T2, Serine/threonine-protein kinase PLK4 (Homo sapiens) (UniProt O00444); experiment: Inhibition of human PLK4 assessed as enzyme activity at 1 uM using casein as substrate preincubated for 20 mins followed by [gamma-33P]-ATP addition and measured after 120 mins by radiometric Hot-SpotSM Kinase assay relative to control
T2 sequence (whole entry): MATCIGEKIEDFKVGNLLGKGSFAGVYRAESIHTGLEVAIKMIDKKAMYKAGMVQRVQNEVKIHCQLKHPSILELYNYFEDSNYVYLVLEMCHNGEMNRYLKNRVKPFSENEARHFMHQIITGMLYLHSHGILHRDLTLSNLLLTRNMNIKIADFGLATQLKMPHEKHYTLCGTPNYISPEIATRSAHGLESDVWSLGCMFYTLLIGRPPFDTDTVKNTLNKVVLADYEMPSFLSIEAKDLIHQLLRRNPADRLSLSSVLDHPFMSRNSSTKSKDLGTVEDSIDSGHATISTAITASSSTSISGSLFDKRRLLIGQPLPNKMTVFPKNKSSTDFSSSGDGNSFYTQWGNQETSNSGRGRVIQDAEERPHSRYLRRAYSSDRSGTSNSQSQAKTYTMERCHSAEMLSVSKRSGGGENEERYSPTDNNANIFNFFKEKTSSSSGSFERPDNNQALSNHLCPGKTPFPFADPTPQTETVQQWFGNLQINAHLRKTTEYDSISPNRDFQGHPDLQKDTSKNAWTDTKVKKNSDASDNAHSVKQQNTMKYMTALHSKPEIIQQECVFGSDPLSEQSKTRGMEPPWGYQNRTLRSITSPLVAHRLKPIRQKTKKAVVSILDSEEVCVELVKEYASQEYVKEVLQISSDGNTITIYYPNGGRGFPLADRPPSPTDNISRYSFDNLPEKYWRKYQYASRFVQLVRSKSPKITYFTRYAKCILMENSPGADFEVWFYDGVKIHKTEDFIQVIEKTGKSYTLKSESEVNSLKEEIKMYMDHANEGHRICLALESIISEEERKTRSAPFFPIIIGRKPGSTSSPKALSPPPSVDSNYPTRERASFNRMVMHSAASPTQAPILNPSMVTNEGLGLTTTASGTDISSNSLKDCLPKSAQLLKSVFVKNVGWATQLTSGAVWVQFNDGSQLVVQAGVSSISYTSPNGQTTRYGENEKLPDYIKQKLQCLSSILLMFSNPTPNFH

[5] = biological target: Serine/threonine-protein kinase 32C (Homo sapiens) (UniProt Q86UX6); experiment: Inhibition of human STK32C assessed as enzyme activity at 1 uM using myelin basic protein as substrate preincubated for 20 mins followed by [gamma-33P]-ATP addition and measured after 120 mins by radiometric Hot-SpotSM Kinase assay relative to control
Sequence of Serine/threonine-protein kinase 32C (Homo sapiens) (Q86UX6 whole entry): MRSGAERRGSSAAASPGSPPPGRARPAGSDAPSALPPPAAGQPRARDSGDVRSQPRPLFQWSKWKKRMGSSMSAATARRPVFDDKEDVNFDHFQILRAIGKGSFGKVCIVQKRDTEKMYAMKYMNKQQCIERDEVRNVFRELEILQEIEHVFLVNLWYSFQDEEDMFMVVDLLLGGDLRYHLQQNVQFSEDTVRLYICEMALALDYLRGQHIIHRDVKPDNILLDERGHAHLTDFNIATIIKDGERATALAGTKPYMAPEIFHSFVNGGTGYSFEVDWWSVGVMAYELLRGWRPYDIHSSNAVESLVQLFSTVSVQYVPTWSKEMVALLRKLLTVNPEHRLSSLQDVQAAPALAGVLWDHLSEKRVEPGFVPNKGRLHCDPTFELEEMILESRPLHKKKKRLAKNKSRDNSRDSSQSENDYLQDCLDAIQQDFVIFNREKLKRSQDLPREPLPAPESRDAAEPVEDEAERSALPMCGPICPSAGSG

[6] = biological target: Serine/threonine-protein kinase NIM1 (Homo sapiens) (UniProt Q8IY84); experiment: Inhibition of human NIM1 assessed as enzyme activity at 1 uM using KKKVSRSGLYRSPSMPENLNRPR as substrate preincubated for 20 mins followed by [gamma-33P]-ATP addition and measured after 120 mins by radiometric Hot-SpotSM Kinase assay relative to control
Sequence of Serine/threonine-protein kinase NIM1 (Homo sapiens) (Q8IY84 whole entry): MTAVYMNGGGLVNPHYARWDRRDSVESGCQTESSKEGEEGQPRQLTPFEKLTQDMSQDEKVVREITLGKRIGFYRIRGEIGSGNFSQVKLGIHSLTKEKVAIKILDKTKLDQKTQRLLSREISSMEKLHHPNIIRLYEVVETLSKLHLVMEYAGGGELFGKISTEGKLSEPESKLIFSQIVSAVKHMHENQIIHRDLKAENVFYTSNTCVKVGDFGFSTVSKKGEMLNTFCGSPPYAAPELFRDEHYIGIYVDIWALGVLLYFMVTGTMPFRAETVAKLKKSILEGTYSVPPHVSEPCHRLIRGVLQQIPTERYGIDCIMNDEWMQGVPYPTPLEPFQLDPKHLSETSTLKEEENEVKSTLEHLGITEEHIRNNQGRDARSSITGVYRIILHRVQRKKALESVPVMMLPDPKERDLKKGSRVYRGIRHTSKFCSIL

[7] = biological target: Proto-oncogene tyrosine-protein kinase receptor Ret (Homo sapiens) (UniProt P07949); experiment: Inhibition of human RET assessed as enzyme activity at 1 uM using RRRRRRRRRRRVYSTDYYRLFNPS as substrate preincubated for 20 mins followed by [gamma-33P]-ATP addition and measured after 120 mins by radiometric Hot-SpotSM Kinase assay relative to control
Sequence of Proto-oncogene tyrosine-protein kinase receptor Ret (Homo sapiens) (P07949 whole entry): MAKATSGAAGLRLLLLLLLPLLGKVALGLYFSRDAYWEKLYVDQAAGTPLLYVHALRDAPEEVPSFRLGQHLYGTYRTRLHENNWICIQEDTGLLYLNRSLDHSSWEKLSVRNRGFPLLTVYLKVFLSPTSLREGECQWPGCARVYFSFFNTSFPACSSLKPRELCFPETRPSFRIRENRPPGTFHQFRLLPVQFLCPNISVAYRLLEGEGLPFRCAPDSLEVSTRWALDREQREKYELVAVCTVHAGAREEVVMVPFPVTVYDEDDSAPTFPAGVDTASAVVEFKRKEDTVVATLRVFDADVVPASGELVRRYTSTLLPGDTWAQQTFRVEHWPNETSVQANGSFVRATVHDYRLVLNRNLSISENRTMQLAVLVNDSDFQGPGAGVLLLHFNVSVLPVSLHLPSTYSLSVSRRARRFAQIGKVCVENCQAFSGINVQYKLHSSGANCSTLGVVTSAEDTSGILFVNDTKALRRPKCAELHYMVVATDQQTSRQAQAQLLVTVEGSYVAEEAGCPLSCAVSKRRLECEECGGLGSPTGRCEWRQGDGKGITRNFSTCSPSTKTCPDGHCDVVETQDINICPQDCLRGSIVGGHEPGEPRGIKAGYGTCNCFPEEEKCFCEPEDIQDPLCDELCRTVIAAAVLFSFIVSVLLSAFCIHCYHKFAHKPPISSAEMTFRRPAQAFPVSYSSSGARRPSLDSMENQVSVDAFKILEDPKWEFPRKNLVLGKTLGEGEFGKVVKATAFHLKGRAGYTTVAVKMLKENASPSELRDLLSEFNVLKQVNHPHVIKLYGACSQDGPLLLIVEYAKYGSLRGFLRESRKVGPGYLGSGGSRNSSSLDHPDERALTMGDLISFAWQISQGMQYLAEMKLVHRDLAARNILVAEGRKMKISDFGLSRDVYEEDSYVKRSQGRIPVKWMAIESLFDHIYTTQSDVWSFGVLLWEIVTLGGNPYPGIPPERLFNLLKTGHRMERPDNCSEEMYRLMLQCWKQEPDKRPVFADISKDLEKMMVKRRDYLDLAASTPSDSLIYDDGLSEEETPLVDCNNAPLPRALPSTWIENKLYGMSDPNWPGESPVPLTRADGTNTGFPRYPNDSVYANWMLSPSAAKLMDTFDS

[8] = biological target: T3, Serine/threonine-protein kinase ICK (Homo sapiens) (UniProt Q9UPZ9); experiment: Inhibition of human LCK2 assessed as enzyme activity at 1 uM using myelin basic protein as substrate preincubated for 20 mins followed by [gamma-33P]-ATP addition and measured after 120 mins by radiometric Hot-SpotSM Kinase assay relative to control
T3 sequence (whole entry): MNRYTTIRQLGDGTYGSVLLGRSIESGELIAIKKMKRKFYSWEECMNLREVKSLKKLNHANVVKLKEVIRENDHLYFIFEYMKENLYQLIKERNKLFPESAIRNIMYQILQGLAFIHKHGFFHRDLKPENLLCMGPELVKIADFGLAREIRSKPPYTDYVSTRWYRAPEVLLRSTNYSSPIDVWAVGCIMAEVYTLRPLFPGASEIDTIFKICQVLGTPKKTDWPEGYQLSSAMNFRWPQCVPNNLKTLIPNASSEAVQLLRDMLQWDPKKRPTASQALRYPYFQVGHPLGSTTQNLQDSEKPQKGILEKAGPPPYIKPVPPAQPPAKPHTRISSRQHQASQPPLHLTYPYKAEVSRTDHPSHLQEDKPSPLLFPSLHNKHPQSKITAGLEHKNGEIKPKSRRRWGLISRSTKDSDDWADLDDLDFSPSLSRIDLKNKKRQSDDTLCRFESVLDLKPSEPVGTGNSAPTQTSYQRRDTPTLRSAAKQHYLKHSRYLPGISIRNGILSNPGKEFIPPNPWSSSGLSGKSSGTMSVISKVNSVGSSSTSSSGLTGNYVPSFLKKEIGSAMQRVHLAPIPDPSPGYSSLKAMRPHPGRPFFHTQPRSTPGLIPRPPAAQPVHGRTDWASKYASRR

SMILES | Activity [1] | Activity [2] | Activity [3] | Activity [4] | Activity [5] | Activity [6] | Activity [7] | Activity [8]
CC[C@H](Nc1ncnc2[nH]cnc12)c1nc2cccc(F)c2c(=O)n1-c1ccccc1 | 108% | 107% | 90.9% | 99.9% | 105% | 93.6% | 98.6% | 100%
C[C@H](Nc1ncnc2nc[nH]c12)c1cc2cccc(Cl)c2c(=O)n1-c1ccccc1 | 103% | 111% | 93% | 91% | 94.3% | 94% | 97.7% | 91.6%
CC(C)Oc1ccc(-c2nn([C@@H](C)c3oc4ccc(F)cc4c(=O)c3-c3cccc(F)c3)c3ncnc(N)c23)cc1F [UMBRALISIB] | 104% | 111% | 92.3% | 102% | 111% | 93% | 99.9% | 101%
